Measured values: patent publication US20060069132A1, “Azolecarboxamide herbicides” (priority 2004, published 2006)

Tests used:
barnyardgrass [1] = assay: Test A pre-/postemergence herbicide test; assay type: in vivo, Echinochloa crus-galli
How it was run: (§1)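 Visual injury rating on a 0–100 scale (0 no effect, 100 complete control) versus untreated controls, about ten days after treatment in greenhouse. Pre: directed soil spray onto seeded sandy loam. Post: spray to runoff on plants 2–10 cm tall at one- to two-leaf stage.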

large crabgrass [2] = assay: Test A pre-/postemergence herbicide test; assay type: in vivo, Digitaria sanguinalis
How it was run: as §1

giant foxtail [3] = assay: Test A pre-/postemergence herbicide test; assay type: in vivo, Setaria faberi
How it was run: as §1

morningglory [4] = assay: Test A pre-/postemergence herbicide test; assay type: in vivo, Ipomoea spp.
How it was run: as §1

redroot pigweed = assay: Test A pre-/postemergence herbicide test; assay type: in vivo, Amaranthus retroflexus
How it was run: as §1

velvetleaf [5] = assay: Test A pre-/postemergence herbicide test; assay type: in vivo, Abutilon theophrasti
How it was run: as §1

barnyardgrass [6] = assay: Test B pre-/postemergence herbicide test; assay type: in vivo, Echinochloa crus-galli; details: for Barnyardgrass plant response rating: postemergence
How it was run: (§2)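 Herbicidal effect was judged by eye on a 0–100 scale after plants stood 13 to 15 days in the greenhouse following pre- or postemergence treatment with surfactant-containing formulations.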

Surinam grass = assay: Test B pre-/postemergence herbicide test; assay type: in vivo, Urochloa decumbens; details: for Surinam Grass plant response rating: postemergence
How it was run: (§3)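 Formulation: non-phytotoxic solvent mix with surfactant. Timing: preemergence on seed and postemergence on 2–18 cm plants, applied concurrently. Readout after 13–15 d greenhouse: visual 0–100 control rating against controls.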

cocklebur = assay: Test B pre-/postemergence herbicide test; assay type: in vivo, Xanthium strumarium; details: for Cocklebur plant response rating: postemergence
How it was run: as §2

corn = assay: Test B pre-/postemergence herbicide test; assay type: in vivo, Zea mays; details: for Corn plant response rating: postemergence
How it was run: as §3

large crabgrass [7] = assay: Test B pre-/postemergence herbicide test; assay type: in vivo, Digitaria sanguinalis; details: for Crabgrass, Large plant response rating: postemergence
How it was run: as §3

giant foxtail [8] = assay: Test B pre-/postemergence herbicide test; assay type: in vivo, Setaria faberi; details: for Foxtail, Giant plant response rating: postemergence
How it was run: as §3

lambsquarters = assay: Test B pre-/postemergence herbicide test; assay type: in vivo, Chenopodium album; details: for Lambsquarters plant response rating: postemergence
How it was run: as §3

morningglory [9] = assay: Test B pre-/postemergence herbicide test; assay type: in vivo, Ipomoea coccinea; details: for Morningglory plant response rating: postemergence
How it was run: as §2

pigweed = assay: Test B pre-/postemergence herbicide test; assay type: in vivo, Amaranthus retroflexus; details: for Pigweed plant response rating: postemergence
How it was run: as §3

velvetleaf [10] = assay: Test B pre-/postemergence herbicide test; assay type: in vivo, Abutilon theophrasti; details: for Velvetleaf plant response rating: postemergence
How it was run: as §3

blackgrass = assay: Test B postemergence herbicide test; assay type: in vivo, Alopecurus myosuroides; details: postemergence
How it was run: (§4)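 Treated at 2-leaf (paddy) or 1–4-leaf, 2–18 cm (postemergence); greenhouse 13–15 d; visual score vs control, 0 none to 100 complete control; dash = not tested.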

wheat = assay: Test B postemergence herbicide test; assay type: in vivo, Triticum aestivum; design: key to Wheat plant response rating: 0 = no effect, 100 = complete control; details: postemergence
How it was run: as §4

wild oat = assay: Test B postemergence herbicide test; assay type: in vivo, Avena fatua; details: postemergence
How it was run: as §4

rice = assay: Test B flooded paddy test; assay type: in vivo, Oryza sativa; details: 1000 g ai/ha, scale 0 to 100 (0 no effect, 100 complete control)
How it was run: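 Scale 0–100: zero equals no visible effect, 100 complete control, judged by eye relative to controls. Timing: 13 to 15 days in greenhouse post-treatment. Growth stage at spraying: two leaves (paddy) or one to four leaves, 2–18 cm (postemergence).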

[11] = system: small flower umbrella sedge; assay: Test B flooded paddy test; assay type: in vivo, Cyperus difformis; details: 1000 g ai/ha, scale 0 to 100 (0 no effect, 100 complete control)
How it was run: as §4

ducksalad = assay: Test B flooded paddy test; assay type: in vivo, Heteranthera limosa; details: 1000 g ai/ha, scale 0 to 100 (0 no effect, 100 complete control)
How it was run: as §4

barnyardgrass [12] = assay: Test B flooded paddy test; assay type: in vivo, Echinochloa crus-galli; details: 1000 g ai/ha, scale 0 to 100 (0 no effect, 100 complete control)
How it was run: as §4

[13] = Postemergence, 500 g ai/ha, 0 to 100 scale, 0 no effect, 100 complete control
[14] = Postemergence, 2000 g ai/ha, 0 to 100 scale, 0 no effect, 100 complete control
[15] = Preemergence, 2000 g ai/ha, visual rating, 0 to 100 scale (0 no effect, 100 complete control)
[16] = preemergence, 500 g ai/ha, visual injury, 0 to 100 scale (0 no effect, 100 complete control)
[17] = 125 g ai/ha, 0 is no effect, 100 is complete control, preemergence
[18] = 125 g ai/ha, visual rating, scale 0 (no effect) to 100 (complete control)
[19] = 500 g ai/ha, visual rating, 0 = no effect, 100 = complete control, preemergence
[20] = 500 g ai/ha, scale 0 to 100, 0 is no effect, 100 is complete control

## CCOc1ccc(F)c(NC(=O)c2cc(C(C)(C)C)nn2CC)c1 [Compound 348]
Barnyardgrass [1]; [13]
  Barnyardgrass plant response rating: 0
Barnyardgrass [1]; [14]
  Plant response rating, Barnyardgrass: 0
Barnyardgrass [1]; [15]
  Barnyardgrass plant response rating: 0
Barnyardgrass [1]; [16]
  Barnyardgrass plant response rating: 0
Large crabgrass [2]; [13]
  Crabgrass, Large plant response rating: 0
Large crabgrass [2]; [14]
  Plant response rating, Crabgrass, Large: 0
Large crabgrass [2]; [15]
  Crabgrass, Large plant response rating: 0
Large crabgrass [2]; [16]
  Crabgrass, Large plant response rating: 0
Giant foxtail [3]; [13]
  Foxtail, Giant plant response rating: 0
Giant foxtail [3]; [14]
  Plant response rating, Foxtail, Giant: 0
Giant foxtail [3]; [15]
  Foxtail, Giant plant response rating: 0
Giant foxtail [3]; [16]
  Foxtail, Giant plant response rating: 0
Morningglory [4]; [13]
  Morningglory plant response rating: 0
Morningglory [4]; [14]
  Plant response rating, Morningglory: 0
Morningglory [4]; [15]
  Morningglory plant response rating: 0
Morningglory [4]; [16]
  Morningglory plant response rating: 0
Redroot pigweed; [13]
  Pigweed plant response rating: 0
Redroot pigweed; [14]
  Plant response rating, Pigweed: 0
Redroot pigweed; [15]
  Pigweed plant response rating: 0
Redroot pigweed; [16]
  Pigweed plant response rating: 0
Velvetleaf [5]; [13]
  Velvetleaf plant response rating: 0
Velvetleaf [5]; [14]
  Plant response rating, Velvetleaf: 0
Velvetleaf [5]; [15]
  Velvetleaf plant response rating: 0
Velvetleaf [5]; [16]
  Velvetleaf plant response rating: 0
Barnyardgrass [6]; [17]
  Plant response rating (0 to 100 scale), Barnyardgrass: 0
Barnyardgrass [6]; [18]
  Barnyardgrass plant response rating: 0
Barnyardgrass [6]; [19]
  Plant response rating, Barnyardgrass: 0
Barnyardgrass [6]; [20]
  Barnyardgrass plant response rating: 0
Surinam grass; [17]
  Plant response rating (0 to 100 scale), Surinam Grass: 0
Surinam grass; [18]
  Surinam Grass plant response rating: 0
Surinam grass; [19]
  Plant response rating, Surinam Grass: 0
Surinam grass; [20]
  Surinam Grass plant response rating: 0
cocklebur; [17]
  Plant response rating (0 to 100 scale), Cocklebur: 0
cocklebur; [18]
  Cocklebur plant response rating: 0
cocklebur; [19]
  Plant response rating, Cocklebur: 0
cocklebur; [20]
  Cocklebur plant response rating: 0
corn; [17]
  Plant response rating (0 to 100 scale), Corn: 0
corn; [18]
  Corn plant response rating: 0
corn; [19]
  Plant response rating, Corn: 0
corn; [20]
  Corn plant response rating: 0
Large crabgrass [7]; [17]
  Plant response rating (0 to 100 scale), Crabgrass, Large: 0
Large crabgrass [7]; [18]
  Crabgrass, Large plant response rating: 0
Large crabgrass [7]; [19]
  Plant response rating, Crabgrass, Large: 0
Large crabgrass [7]; [20]
  Crabgrass, Large plant response rating: 0
Giant foxtail [8]; [17]
  Plant response rating (0 to 100 scale), Foxtail, Giant: 0
Giant foxtail [8]; [18]
  Foxtail, Giant plant response rating: 0
Giant foxtail [8]; [19]
  Plant response rating, Foxtail, Giant: 0
Giant foxtail [8]; [20]
  Foxtail, Giant plant response rating: 0
lambsquarters; [17]
  Plant response rating (0 to 100 scale), Lambsquarters: 0
lambsquarters; [18]
  Lambsquarters plant response rating: 0
lambsquarters; [19]
  Plant response rating, Lambsquarters: 0
lambsquarters; [20]
  Lambsquarters plant response rating: 0
Morningglory [9]; [17]
  Plant response rating (0 to 100 scale), Morningglory: 0
Morningglory [9]; [18]
  Morningglory plant response rating: 0
Morningglory [9]; [19]
  Plant response rating, Morningglory: 0
Morningglory [9]; [20]
  Morningglory plant response rating: 0
pigweed; [17]
  Plant response rating (0 to 100 scale), Pigweed: 0
pigweed; [18]
  Pigweed plant response rating: 0
pigweed; [19]
  Plant response rating, Pigweed: 0
pigweed; [20]
  Pigweed plant response rating: 0
Velvetleaf [10]; [17]
  Plant response rating (0 to 100 scale), Velvetleaf: 0
Velvetleaf [10]; [18]
  Velvetleaf plant response rating: 0
Velvetleaf [10]; [20]
  Velvetleaf plant response rating: 0
blackgrass; [18]
  Blackgrass plant response rating: 20
blackgrass; [20]
  Blackgrass plant response rating: 40
wheat; [18]
  Wheat plant response rating: 20
wheat; [20]
  Wheat plant response rating: 20
Wild oat; [18]
  Oat, Wild plant response rating: 20
Wild oat; [20]
  Oat, Wild plant response rating: 30
rice
  Rice plant response rating: 0
[11]
  Sedge, Umbrella plant response rating: 0
ducksalad
  Ducksalad plant response rating: 0
Barnyardgrass [12]
  Barnyardgrass plant response rating: 0
